The results in this text go back to patent EP4745138A1, “THIO-GLUTARIMIDO ISOINDOLINONE DERIVATIVE, BIFUNCTIONAL PROTEIN DEGRADER CONTAINING SAME, AND USES THEREOF” (Gluetacs Therapeutics (Shanghai) Co., Ltd., priority 2023, dated 2025).

Read-outs that look alike come from different tables or passages of the source. Bounds are passed on as bounds.

The target in test [1] is T1, human Cereblon WT GST-tagged protein (Homo sapiens, UniProt Q96SW2).
T1 construct: purchased CISBIO 64BDCRBNPEH
Nature of the test: CRBN-binding affinity, HTRF (CEREBLON BINDING kit). The note with it: for inhibition at 0.5 µM: read-out: Inhibition Rate at 0.5 µM (%); for inhibition at 2 µM: read-out: Inhibition Rate at 2 µM (%). The method in brief:
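Competitive HTRF binding: compounds diluted in diluent #9 incubated with GST-tagged wild-type human Cereblon, thalidomide-Red tracer and anti-GST Eu antibody. Final compound concentrations 2 µM and 0.5 µM.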

The target in the next test is T2, ALK (Homo sapiens, UniProt Q96SW2+Q9HC35+Q9UM73).
T2 construct: endogenous in cells; host or cells: H2228
T2 sequence (Q9HC35+Q9UM73 fused): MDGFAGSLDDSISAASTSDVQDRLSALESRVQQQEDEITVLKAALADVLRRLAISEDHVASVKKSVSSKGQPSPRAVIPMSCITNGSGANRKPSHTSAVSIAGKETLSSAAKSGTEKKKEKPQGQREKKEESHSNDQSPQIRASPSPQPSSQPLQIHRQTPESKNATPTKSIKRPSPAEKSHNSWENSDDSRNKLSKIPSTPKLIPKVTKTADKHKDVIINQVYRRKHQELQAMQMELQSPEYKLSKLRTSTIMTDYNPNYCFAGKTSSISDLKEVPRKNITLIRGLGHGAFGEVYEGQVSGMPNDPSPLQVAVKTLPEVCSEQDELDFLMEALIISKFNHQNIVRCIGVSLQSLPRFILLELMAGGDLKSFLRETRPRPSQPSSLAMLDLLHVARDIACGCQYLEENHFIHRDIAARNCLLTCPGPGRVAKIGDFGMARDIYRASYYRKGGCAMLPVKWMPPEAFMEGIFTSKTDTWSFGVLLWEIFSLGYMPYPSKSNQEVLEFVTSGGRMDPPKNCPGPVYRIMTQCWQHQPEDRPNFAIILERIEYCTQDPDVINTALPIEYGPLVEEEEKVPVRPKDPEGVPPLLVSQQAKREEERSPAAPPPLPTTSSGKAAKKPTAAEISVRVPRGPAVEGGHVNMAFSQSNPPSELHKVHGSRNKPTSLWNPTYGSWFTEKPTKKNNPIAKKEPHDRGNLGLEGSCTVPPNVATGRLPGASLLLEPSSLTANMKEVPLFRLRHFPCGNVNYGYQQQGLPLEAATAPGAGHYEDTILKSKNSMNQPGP
T2 sequence (Q96SW2 whole entry): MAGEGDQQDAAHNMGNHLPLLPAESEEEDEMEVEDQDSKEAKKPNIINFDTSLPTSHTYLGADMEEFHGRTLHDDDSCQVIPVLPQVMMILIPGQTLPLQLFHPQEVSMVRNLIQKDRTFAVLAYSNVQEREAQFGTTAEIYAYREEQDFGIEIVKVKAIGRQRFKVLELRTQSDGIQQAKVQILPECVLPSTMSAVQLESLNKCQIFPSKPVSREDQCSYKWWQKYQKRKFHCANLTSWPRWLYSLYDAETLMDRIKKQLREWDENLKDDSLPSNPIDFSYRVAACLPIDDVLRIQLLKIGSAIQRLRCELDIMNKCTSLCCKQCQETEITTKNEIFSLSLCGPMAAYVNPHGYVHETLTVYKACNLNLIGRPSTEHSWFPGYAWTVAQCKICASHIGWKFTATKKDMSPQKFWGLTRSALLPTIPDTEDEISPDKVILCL
T2 sequence (Q16531 whole entry partner): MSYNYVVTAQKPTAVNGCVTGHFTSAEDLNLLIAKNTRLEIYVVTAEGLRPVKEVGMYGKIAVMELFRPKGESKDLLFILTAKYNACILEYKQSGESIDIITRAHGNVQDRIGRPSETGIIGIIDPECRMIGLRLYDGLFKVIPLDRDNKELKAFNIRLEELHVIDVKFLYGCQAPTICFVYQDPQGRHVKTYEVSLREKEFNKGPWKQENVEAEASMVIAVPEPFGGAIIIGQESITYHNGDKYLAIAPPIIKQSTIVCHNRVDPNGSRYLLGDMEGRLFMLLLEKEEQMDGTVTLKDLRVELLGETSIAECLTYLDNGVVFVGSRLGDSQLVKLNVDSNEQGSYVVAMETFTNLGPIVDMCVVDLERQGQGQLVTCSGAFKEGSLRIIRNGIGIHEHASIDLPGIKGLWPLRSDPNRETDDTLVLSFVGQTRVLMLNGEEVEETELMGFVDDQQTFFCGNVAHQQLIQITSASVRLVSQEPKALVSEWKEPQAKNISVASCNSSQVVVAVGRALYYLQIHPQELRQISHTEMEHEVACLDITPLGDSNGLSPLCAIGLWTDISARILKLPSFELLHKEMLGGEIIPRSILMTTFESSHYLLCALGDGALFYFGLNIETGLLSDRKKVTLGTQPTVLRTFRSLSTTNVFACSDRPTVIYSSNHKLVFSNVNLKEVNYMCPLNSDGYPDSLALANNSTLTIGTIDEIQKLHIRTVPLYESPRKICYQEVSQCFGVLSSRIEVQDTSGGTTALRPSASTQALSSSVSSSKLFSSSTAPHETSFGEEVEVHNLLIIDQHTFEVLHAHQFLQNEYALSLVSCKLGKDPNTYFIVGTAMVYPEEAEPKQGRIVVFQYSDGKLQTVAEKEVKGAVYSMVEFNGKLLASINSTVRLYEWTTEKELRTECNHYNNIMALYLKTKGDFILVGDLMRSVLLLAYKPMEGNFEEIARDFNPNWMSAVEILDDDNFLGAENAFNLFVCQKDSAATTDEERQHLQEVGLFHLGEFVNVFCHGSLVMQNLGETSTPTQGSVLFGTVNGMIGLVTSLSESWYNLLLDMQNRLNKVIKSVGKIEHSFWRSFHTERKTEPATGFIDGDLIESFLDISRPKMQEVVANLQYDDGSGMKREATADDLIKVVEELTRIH
As to the kind of experiment: Western blot, target protein degradation in H2228 Cell. The format is cell-based. The note with it: substrate protein remaining %, treated at 500 nM and 50 nM, 24 hours. Put shortly: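 Protein loss was measured by conventional immunoblotting after compound treatment of the indicated cells, with lysates heat-denatured and blotted to nitrocellulose. Densitometry values, normalized to a loading-control protein, were expressed as percent remaining versus DMSO, and degradation rate was taken as 1 minus remaining.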

Another test relates to SR. As to the kind of experiment: Tumor cell proliferation inhibition (CellTiter-Meiluncell Luminescent Cell Viability Assay). The note with it: Homo sapiens, 96 hours, Table I-1, designed based on the ALK inhibitors, read-out: Inhibitory activity (IC50, nM) SR. The protocol: (§1) The tumor cells used herein were cultured in a cell culture medium listed in table 3 at 37°C in an incubator with 5% CO2. Prior to experimentation, all cell lines used were correctly identified by STR profiling, and tested negative for mycoplasma contamination using a mycoplasma detection kit through routine screenings. Table 3. Tumor cells and cell culture medium used in the present disclosure
(§2) The IC50 values of the compounds of the present disclosure (including the compounds in Table 1, Table 2, and Examples) were determined using the CellTiter-Meiluncell Luminescent Cell Viability Assay Kit from Dalian Meilun Biotech Co., Ltd. The detailed procedure is as follows: Tumor cells were seeded in 96-well cell culture plates at the densities specified in Table 4. On the following day, the test compounds of the present disclosure were subjected to serial dilution. […] Subsequently, 0.5 µL of the test compound dilution was transferred into the 96-well plate containing the cells, with each well containing 100 µL of cell culture medium. […] Into the 96-well plate, the diluted test compounds and corresponding detection reagents were added, resulting in final test compound concentrations of 500 nM and 10 nM, respectively. The experimental procedure is described below using the diluted 2 µM test compound as an example.
(§3) 0.5 µL of the aforementioned diluted compound of the present disclosure (including the compounds in Table 1, Table 2, and Examples) was added to the seeded cells in 100 µL of medium, yielding a final test compound concentration of 10 nM. After the cells were treated with the compounds of the present disclosure for a specified period, the cell viability assay reagent was added to the culture medium according to the kit's instructions to determine cell viability. […] All controls were treated using the same procedure as the compounds of the present disclosure. […] Seeding protocol and treatment time for tumor cells

A further test concerns HCC827. The description is as above. The note with it: Homo sapiens, 96 hours, Table I-1, designed based on the ALK inhibitors, read-out: Inhibitory activity (IC50, nM) HCC827. The protocol:
as §1, §2, §3

For another test, the target named is T3, IRAK4 (Homo sapiens, UniProt Q9NWZ3).
T3 construct: endogenous in cells; host or cells: hPBMC
T3 sequence (Q9NWZ3 whole entry): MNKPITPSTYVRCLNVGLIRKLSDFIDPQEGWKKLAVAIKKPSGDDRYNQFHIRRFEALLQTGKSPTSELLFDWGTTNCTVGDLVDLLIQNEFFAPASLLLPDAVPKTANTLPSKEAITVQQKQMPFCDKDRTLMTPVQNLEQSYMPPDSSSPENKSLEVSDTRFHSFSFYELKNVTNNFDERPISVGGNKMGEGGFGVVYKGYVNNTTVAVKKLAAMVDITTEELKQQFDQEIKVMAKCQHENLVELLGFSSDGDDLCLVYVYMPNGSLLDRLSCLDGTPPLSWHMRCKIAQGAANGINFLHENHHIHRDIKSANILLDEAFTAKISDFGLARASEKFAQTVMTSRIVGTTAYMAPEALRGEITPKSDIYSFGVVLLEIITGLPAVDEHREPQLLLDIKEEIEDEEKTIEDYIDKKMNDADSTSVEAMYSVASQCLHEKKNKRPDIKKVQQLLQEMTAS
Nature of the test: Western blot, target protein degradation in hPBMC Cell. The class given is cell-based. As to conditions: substrate protein remaining %, treated at 50 nM and 500 nM, 24 hours. The protocol:
(§4) Conventional Western blot assay was performed to evaluate the effects of the compounds of the present disclosure on the expression of target proteins in cells.
(§5) (1) Cell Seeding and Protein Harvesting: The selected cells were processed according to the cell seeding procedure and protein harvesting procedure in Table II-2. Table II-2 Cell Seeding and Protein Harvesting Procedures
(§6) (2) To the collected supernatant, 5X SDS sample loading buffer was added, followed by denaturation at 95°C for 5 minutes. The denatured samples were then separated by SDS-PAGE electrophoresis on a polyacrylamide gel. Proteins were transferred to a nitrocellulose membrane (0.45 µm NC membrane), blocked with blocking buffer at room temperature for 1 hour, and subjected to antibody incubation and development procedures according to the antibody manufacturer's instructions (Cell Signaling Technology).
(§7) Half-Maximal Degradation Concentration value (the drug concentration required for degrading proteins by 50%, abbreviated as DC50) reads method: comparing the grayscale values of Western blot bands from drug-treated samples with those from blank DMSO-treated controls, and identifying the drug concentration range at which the grayscale value is half that of the DMSO-treated control bands.
(§8) DC50 values can be calculated using ImageJ software to measure grayscale values of Western blot bands from drug-treated samples. The concentration-response curve is fitted to estimate the drug concentration corresponding to half the grayscale value.
(§9) Target protein remaining (%) refers to the percentage of target protein remaining in cells after treatment with protein degrader compounds.
(§10) Calculation method for target protein remaining (%): Use ImageJ software to measure grayscale values of Western blot bands from drug (protein degrader)-treated samples. The grayscale value of drug-treated bands is divided by that of internal control protein bands, and the resulting quotient is normalized to obtain the relative percentage of remaining target protein after protein degrader treatment. Target protein degradation rate(%) = 1−target protein remaining(%). [formula]

Another test relates to JEKO-1. Nature of the test: Tumor cell proliferation inhibition (CellTiter-Meiluncell Luminescent Cell Viability Assay). The class given is cell-based. The note with it: Homo sapiens, 96 hours, Table I-6, IRAK4 inhibitors. Put shortly: (§11)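 Following overnight seeding, tumor cells received serial compound dilutions to final levels that included 10 nM and 500 nM. Viability was assessed by luminescence at the end of the specified exposure time. Cultures were kept at 37°C with 5% CO2.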

The next test concerns MM.1S. The test is described as above. The class given is cell-based. As to conditions: Homo sapiens, MM1.S, MM.1S, 96 hours; for inhibition at 0.01 µM: 10 nM, read-out: Inhibition Rate at 10 nM (%); for inhibition at 0.5 µM: 500 nM, read-out: Inhibition Rate at 500 nM (%). The method in brief: as §11
For the next test, the system named is SW620. The test is described as above. The note with it: Homo sapiens, 96 hours, Table I-6, IRAK4 inhibitors. The format is cell-based. Put shortly: as §11
The next test deals with MV-4-11. Described as above. The note with it: Homo sapiens, 96 hours; for inhibition at 0.01 µM: MV4-11, 10 nM, read-out: Inhibition Rate at 10 nM (%); for inhibition at 0.5 µM: MV4-11, 500 nM, read-out: Inhibition Rate at 500 nM (%). The format is cell-based. The method in brief:
as §11

For another test, the target named is T4, CDK2 (Homo sapiens, UniProt P24941).
T4 construct: the expression of target proteins in cells; endogenous in cells; host or cells: hPBMC
Nature of the test: Western blot, target protein degradation in hPBMC Cell. The format is cell-based. As to conditions: treated at 50 nM and 500 nM, 24 hours. The protocol: as §4, §5, §6, §7, §8, §9, §10

In another test the test system is MCF-7. Nature of the test: Tumor cell proliferation inhibition (CellTiter-Meiluncell Luminescent Cell Viability Assay). The format is cell-based. As to conditions: Homo sapiens, 96 hours, Table I-2, ALK inhibitors. The method in brief:
as §11

The test system of another test is A375. The description is as above. The format is cell-based. As to conditions: Homo sapiens, 96 hours, Table I-2, ALK inhibitors. The method in brief:
as §11

A further test concerns CFPAC-1. The description is as above. The format is cell-based. As to conditions: Homo sapiens, 96 hours, Table I-2, ALK inhibitors. The method in brief: as §11
Where [2] appears, read: 10 nM, read-out: Inhibition Rate at 10 nM (%).
[3] abbreviates: 500 nM, read-out: Inhibition Rate at 500 nM (%).

T1 sequence (Q96SW2 whole entry): as the sequence (Q96SW2 whole entry) above

`CCc1cc2c(cc1N1CCC(N3CCN(Cc4ccc5c(c4)C(=S)N(C4CCC(=O)NC4=O)C5)CC3)CC1)C(C)(C)c1[nH]c3cc(C#N)ccc3c1C2=O` (centres unmarked) [GT-05030, 8-(4-(4-((2-(2,6-dioxopiperidin-3-yl)-3-thioxoisoindolin-5-yl)methyl)piperazin-1-yl)piperidin-1-yl)-9-ethyl-6,6-dimethyl-11-oxo-6,11-dihydro-5H-benzo[b]carbazole-3-carbonitrile]: in test [1], the inhibition at 0.5 µM fell in the range of 60 to 80% and the inhibition at 2 µM lay within 60 to 80%. Besides, the “Degradation of substrate protein ALK” value at ALK was “A (0% ≤ substrate protein remaining % ≤ 80%)”. Besides, the IC50 in the test on SR was in the range of 10 to 20 nM. In addition, in the test on HCC827, the IC50 was in the range of 500 to 1000 nM.
On to `O=C1CCC(N2Cc3cc(CN4CCC(n5cc(NC(=O)c6coc(-c7ccnc(NCC(F)(F)F)c7)n6)c(C(F)F)n5)CC4)ccc3C2=S)C(=O)N1` (centres unmarked) [GT-05292, N-(3-(difluoromethyl)-1-(1-((2-(2,6-dioxopiperidin-3-yl)-1-thioxoisoindolin-5-yl)methyl)piperidin-4-yl)-1H-pyrazol-4-yl)-2-(2-((2,2,2-trifluoroethyl)amino)pyridin-4-yl)oxazole-4-carboxamide], for which the “Degradation of substrate protein IRAK4” value at IRAK4 is given as “A (0% ≤ substrate protein remaining % ≤ 80%)”. In addition, the inhibition at 0.5 µM lay within 20 to 30% in [1]; 80 to 100% with JEKO-1 (setting [3]); 80 to 100% in the test with MM.1S (Table I-6, IRAK4 inhibitors); 80 to 100% in the test with SW620 (SW-620, 500 nM, read-out: Inhibition Rate at 500 nM (%)); 80 to 100% with MV-4-11 (Table I-6, IRAK4 inhibitors). The inhibition at 2 µM in test [1] fell in the range of 60 to 80%. In addition, the inhibition at 0.01 µM fell in the range of 30 to 40% in the test with JEKO-1 (setting [2]); 50 to 60% with MM.1S (Table I-6, IRAK4 inhibitors); 70 to 80% in the test on SW620 (SW-620, 10 nM, read-out: Inhibition Rate at 10 nM (%)); 80 to 100% in the test on MV-4-11 (Table I-6, IRAK4 inhibitors).
On to `CC(C)(O)c1cc2nn(C3CCN(Cc4ccc5c(c4)CN(C4CCC(=O)NC4=O)C5=S)CC3)cc2cc1NC(=O)c1cccc(C(F)(F)F)n1` (centres unmarked) [GT-05297, N-(2-(1-((2-(2,6-dioxopiperidin-3-yl)-1-thioxoisoindolin-5-yl)methyl)piperidin-4-yl)-6-(2-hydroxypropan-2-yl)-2H-indazol-5-yl)-6-(trifluoromethyl)picolinamide], for which the “Degradation of substrate protein IRAK4” value at IRAK4 is listed as “A (0% ≤ substrate protein remaining % ≤ 80%)”. In test [1], the inhibition at 0.5 µM was 60 to 80% and the inhibition at 2 µM was 80 to 100%.
Turning to `Cc1ccsc1C(=O)n1nc(Nc2ccc(S(=O)(=O)N3CCN(Cc4ccc5c(c4)CN(C4CCC(=O)NC4=O)C5=S)CC3)cc2)nc1N` (centres unmarked) [GT-08792, 3-(5-((4-((4-((5-amino-1-(3-methylthiophene-2-carbonyl)-1H-1,2,4-triazol-3-yl)amino)phenyl)sulfony 1)piperazin-1-yl)methyl)-1-thioxoisoindolin-2-yl)piperidine-2,6-dione], the “Degradation of substrate protein CDK2” value on CDK2 is given as “Yes”. Moreover, in [1], the inhibition at 0.5 µM lay in the range of 60 to 80% and the inhibition at 2 µM was 60 to 80%. In addition, in the test on MM.1S (Table I-13, CDK2 inhibitors), the inhibition at 0.01 µM lay in the range of 10 to 20% and the inhibition at 0.5 µM fell in the range of 60 to 70%. Besides, in the test with MV-4-11 (Table I-13, CDK2 inhibitors), the inhibition at 0.01 µM was in the range of 0 to 5% and the inhibition at 0.5 µM was 50 to 60%.
Regarding `C[C@H]1Oc2cc(cnc2N)-c2c(nn(C)c2C#N)CN(C)C(=O)c2ccc(F)cc21` [lorlatinib, reference compound], the IC50 in the test on SR and in the test on HCC827 was more than 10000 nM each time. For the same compound, the inhibition at 0.01 µM is -5 to 0% in the test with MM.1S (Table I-2, ALK inhibitors); 10 to 20% in the test on MCF-7 (MCF7, 10 nM, read-out: Inhibition Rate at 10 nM (%)); -20 to -10% in the test on MV-4-11 (Table I-2, ALK inhibitors); 10 to 20% in the test on A375 (A-375, 10 nM, read-out: Inhibition Rate at 10 nM (%)); 10 to 20% in the test on CFPAC-1 (setting [2]). Besides, the inhibition at 0.5 µM was -20 to -10% in the test with MM.1S (Table I-2, ALK inhibitors); 20 to 30% in the test on MCF-7 (MCF7, 500 nM, read-out: Inhibition Rate at 500 nM (%)); -5 to 0% with MV-4-11 (Table I-2, ALK inhibitors); 10 to 20% in the test with A375 (A-375, 500 nM, read-out: Inhibition Rate at 500 nM (%)); 20 to 30% in the test with CFPAC-1 (setting [3]).
